Literature values in patent publication US8399018B2, “Controlled release ion channel modulator compositions and methods for the treatment of otic disorders” (priority 2008, dated 2013).

How the values were obtained:
guinea pigs = details: chronic administration
V2-R = details: infusion into the scala tympani
tinnitus = details: administered by IV

NC(=O)CC[C@@H]1NC(=O)[C@H](Cc2ccccc2)NC(=O)[C@H](Cc2ccc(O)cc2)NC(=O)[C@@H](N)CSSC[C@@H](C(=O)N2CCC[C@H]2C(=O)N[C@@H](CCCN=C(N)N)C(=O)NCC(N)=O)NC(=O)[C@H](CC(N)=O)NC1=O [VP, vasopressin]
induction of endolymphatic hydrops (guinea pigs): induces endolymphatic hydrops

Cc1ccccc1C(=O)Nc1ccc(C(=O)N2CCCC(N(C)C)c3ccccc32)cc1 (stereo not drawn) [OPC-31260]
reduction of Meniere's disease symptoms (V2-R): marked reduction

CCN(CC)CC(=O)Nc1c(C)cccc1C [Lidocaine]
sufferers in whom noise associated with tinnitus is reduced or eliminated (tinnitus): 60-80%
